In US8637537B2, “Serine/threonine kinase inhibitors” (Genentech, Inc., priority 2011, dated 2014):
Like-named read-outs stand apart in the source and are kept apart here.

Target: T1, human recombinant GST-PAK1-KD protein (Homo sapiens, UniProt Q13153)
T1 construct: residues #249-545 of human PAK1, UniProtKP/Swiss Q13153; His6 (N); made in house; host or cells: Sf9 insect cells, pAcGP67 baculovirus expression vector
Test: GST-PAK1-KD (kinase domain) biochemical assay, microfluidic mobility shift
Method: Activity of human recombinant GST-PAK1-KD protein was assessed in vitro assay by observing the phosphorylation of a fluorogenic peptide substrate.
The peptide substrate is a consensus sequence based on various PAK1 substrates reported in the scientific literature. […] Incubations were carried out at 22° C. in MatriCal MP101 384-well Metriplates™. […] Following the 30-minute incubation, the assay mixtures were quenched by the addition of 3 μL of 250 mM EDTA, and the substrate and phosphorylated product were separated by capillary electrophoresis and detected using LabChip® Caliper 3000 (Caliper Life Sciences).

[1] = Table I, PAK1 Ki class, read-out: Ki
[2] = Table II, PAK1 Ki class, read-out: Ki

T1 sequence (Q13153 249-545): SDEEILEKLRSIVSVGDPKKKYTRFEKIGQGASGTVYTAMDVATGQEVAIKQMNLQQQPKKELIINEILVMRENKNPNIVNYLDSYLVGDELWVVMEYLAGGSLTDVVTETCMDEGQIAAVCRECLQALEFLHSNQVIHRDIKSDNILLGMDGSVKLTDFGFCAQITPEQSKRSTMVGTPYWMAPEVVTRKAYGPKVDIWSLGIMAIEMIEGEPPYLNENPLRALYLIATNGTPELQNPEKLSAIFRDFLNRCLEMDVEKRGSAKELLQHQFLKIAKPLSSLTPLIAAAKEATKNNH

Ki [1]	Ki [2]	Compound	also measured
< 50 nM		C[C@H](Nc1nccc(Nc2cc([C@H]3C[C@@H]3F)[nH]n2)n1)c1ccc2[nH]cnc2c1 [I-70, N^2—((S)-1-(1H-benzo[d]imidazol-5-yl)ethyl)-N^4-(5-((1R,2S)-2-fluorocyclopropyl)-1H-pyrazol-3-yl)pyrimidine-2,4-diamine]	
	< 50 nM	C[C@H](O)CN(Cc1cc(F)cc2[nH]ncc12)c1nccc(Nc2cc(C3CC3)[nH]n2)n1 [II-72, (S)-1-((4-((5-cyclopropyl-1H-pyrazol-3-yl)amino)pyrimidin-2-yl)((6-fluoro-1H-indazol-4-yl)methyl)amino)propan-2-ol]	
< 50 nM		C[C@H](Nc1nccc(Nc2cc([C@@H]3C[C@@H]3F)[nH]n2)n1)c1ccc2[nH]cnc2c1 (single isomer, unassigned) [I-67]	
	< 50 nM	Fc1cc(CNc2nccc(Nc3cc(C4CC4)[nH]n3)n2)c2cn[nH]c2c1 [II-52, N^4-(5-cyclopropyl-1H-pyrazol-3-yl)-N^2-((6-fluoro-1H-indazol-4-yl)methyl)pyrimidine-2,4-diamine]	
< 50 nM		F[C@H]1C[C@@H]1c1cc(Nc2ccnc(NCc3ccc4[nH]cnc4c3Cl)n2)n[nH]1 [I-79, N^2-((4-chloro-1H-benzo[d]imidazol-5-yl)methyl)-N^4-(5-((1R,2S)-2-fluorocyclopropyl)-1H-pyrazol-3-yl)pyrimidine-2,4-diamine]	
	< 50 nM	CN(C)CCN(Cc1cc(F)cc2[nH]ncc12)c1ncc(F)c(Nc2cc(C3CC3)[nH]n2)n1 [II-86, N^4-(5-cyclopropyl-1H-pyrazol-3-yl)-N^2-(2-(dimethylamino)ethyl)-5-fluoro-N^2-((6-fluoro-1H-indazol-4-yl)methyl)pyrimidine-2,4-diamine]	
	50 to 250 nM	CCN(Cc1ccc2[nH]cnc2c1)c1ncc(F)c(Nc2cc(C3CC3)[nH]n2)n1 [II-104, N^2-((1H-benzo[d]imidazol-5-yl)methyl)-N^4-(5-cyclopropyl-1H-pyrazol-3-yl)-N^2-ethyl-5-fluoropyrimidine-2,4-diamine]	
	< 50 nM	CN(Cc1ccc2[nH]cnc2c1Cl)c1nccc(Nc2cc([C@@H]3C[C@H]3F)[nH]n2)n1 [II-49, N^2-((4-chloro-1H-benzo[d]imidazol-5-yl)methyl)-N^4-(5-((1S,2R)-2-fluorocyclopropyl)-1H-pyrazol-3-yl)-N^2-methylpyrimidine-2,4-diamine]	
< 50 nM		CCN(Cc1ccc2[nH]cnc2c1)c1nccc(Nc2cc(C3CC3)[nH]n2)n1 [I-71, N^2-((1H-benzo[d]imidazol-5-yl)methyl)-N^4-(5-cyclopropyl-1H-pyrazol-3-yl)-N^2-ethylpyrimidine-2,4-diamine]	
50 to 250 nM		CC[C@H](Nc1ncc(F)c(Nc2cc(C3CC3)[nH]n2)n1)c1ccc2[nH]cnc2c1 [I-101, N^2-[(1S)-1-(1H-benzimidazol-5-yl)propyl]-N^4-(5-cyclopropyl-1H-pyrazol-3-yl)-5-fluoro-pyrimidine-2,4-diamine]	
	< 50 nM	COc1c(CNc2nccc(Nc3cc(C4CC4)[nH]n3)n2)ccc2[nH]cnc12 [II-1, N^4-(5-Cyclopropyl-1H-pyrazol-3-yl)-N^2-[(4-methoxy-1H-benzimidazol-5-yl)methyl]-pyrimidine-2,4-diamine]	
		Fc1c(CNc2nccc(Nc3cc(C4CC4)[nH]n3)n2)ccc2[nH]cnc12 [I-29, N^4-(5-Cyclopropyl-1H-pyrazol-3-yl)-N^2-[(4-fluoro-1H-benzimidazol-5-yl)methyl]pyrimidine-2,4-diamine]	Ki: 250 to 1000 nM
50 to 250 nM		C[C@H](Nc1ncc(Cl)c(Nc2cc(C3CC3)[nH]n2)n1)c1ccc2[nH]cnc2c1 [I-46, (S)—N^2-(1-(1H-benzo[d]imidazol-5-yl)ethyl)-5-chloro-N^4-(5-cyclopropyl-1H-pyrazol-3-yl)pyrimidine-2,4-diamine]	
	< 50 nM	COc1cc(CNc2ncc(F)c(Nc3cc(C4CC4)[nH]n3)n2)c2cn[nH]c2c1 [II-98, N^4-(5-cyclopropyl-1H-pyrazol-3-yl)-5-fluoro-N^2-((6-methoxy-1H-indazol-4-yl)methyl)pyrimidine-2,4-diamine]	
	< 50 nM	C[C@H](c1cc(Nc2ccnc(NCc3ccc4[nH]cnc4c3Cl)n2)n[nH]1)C1CC1 [II-79, (S)-N^2-((4-chloro-1H-benzo[d]imidazol-5-yl)methyl)-N^4-(5-(1-cyclopropylethyl)-1H-pyrazol-3-yl)pyrimidine-2,4-diamine]	
< 50 nM		Clc1c(CNc2nccc(Nc3cc(C4CCC4)[nH]n3)n2)ccc2[nH]cnc12 [I-108, N^2-((4-chloro-1H-benzo[d]imidazol-5-yl)methyl)-N^4-(5-cyclobutyl-1H-pyrazol-3-yl)pyrimidine-2,4-diamine]	
	< 50 nM	c1cc(Nc2cc(C3CC3)[nH]n2)nc(N(Cc2ccc3[nH]cnc3c2)C2CC2)n1 [II-78, N^2-((1H-benzo[d]imidazol-5-yl)methyl)-N^2-cyclopropyl-N^4-(5-cyclopropyl-1H-pyrazol-3-yl)pyrimidine-2,4-diamine]	

Ki [1]	Ki [2]	Compound	also measured
	50 to 250 nM	c1cncc(CN(Cc2cccc3[nH]ccc23)c2nccc(Nc3cc(C4CC4)[nH]n3)n2)c1 [II-10, N^4-(5-Cyclopropyl-1H-pyrazol-3-yl)-N^2-(1H-indol-4-ylmethyl)-N^2-(3-pyridylmethyl)pyrimidine-2,4-diamine]	
50 to 250 nM		Cc1cc(Nc2cc(C3CC3)[nH]n2)nc(N[C@@H](C)c2ccc3[nH]cnc3c2)n1 [I-4, (S)—N^2-(1-(1H-benzo[d]imidazol-5-yl)ethyl)-N^4-(5-cyclopropyl-1H-pyrazol-3-yl)-6-methylpyrimidine-2,4-diamine]	
50 to 250 nM		C[C@H](Nc1nccc(Nc2cc(OCc3ccccc3)[nH]n2)n1)c1ccc2[nH]cnc2c1 [I-21, N^2-[(1S)-1-(1H-Benzimidazol-5-yl)ethyl]-N^4-(5-benzyloxy-1H-pyrazol-3-yl)pyrimidine-2,4-diamine]	
	50 to 250 nM	Fc1cnc(N(Cc2ccc3[nH]cnc3c2)C2CCCC2)nc1Nc1cc(C2CC2)[nH]n1 [II-108, N^2-((1H-benzo[d]imidazol-5-yl)methyl)-N^2-cyclopentyl-N^4-(5-cyclopropyl-1H-pyrazol-3-yl)-5-fluoropyrimidine-2,4-diamine]	
50 to 250 nM		Cc1ccc2[nH]ccc2c1CNc1nccc(Nc2cc(C3CC3)[nH]n2)n1 [I-122, N^4-(5-Cyclopropyl-1H-pyrazol-3-yl)-N^2-((5-methyl-1H-indol-4-yl)methyl)pyrimidine-2,4-diamine]	
250 to 1000 nM		Clc1cnc(NCc2cccc3[nH]ccc23)nc1Nc1cc(C2CC2)[nH]n1 [I-49, N^2-((1H-indol-4-yl)methyl)-5-chloro-N^4-(5-cyclopropyl-1H-pyrazol-3-yl)pyrimidine-2,4-diamine]	
	< 50 nM	C[C@H](Nc1ncc(F)c(Nc2cc(C3CC3)[nH]n2)n1)c1cc(F)cc2[nH]ncc12 [II-71, (S)-N^4-(5-cyclopropyl-1H-pyrazol-3-yl)-5-fluoro-N^2-(1-(6-fluoro-1H-indazol-4-yl)ethyl)pyrimidine-2,4-diamine]	
50 to 250 nM		CC(C)(Nc1nccc(Nc2cc(C3CC3)[nH]n2)n1)c1ccc2[nH]cnc2c1 [I-17, N^2-(2-(1H-Benzo[d]imidazol-5-yl)propan-2-yl)-N^4-(5-cyclopropyl-1H-pyrazol-3-yl)pyrimidine-2,4-diamine]	
	< 50 nM	Cc1cc(Nc2nc(N(C)Cc3ccc4[nH]cnc4c3Cl)ncc2F)n[nH]1 [II-91, N^2-((4-chloro-1H-benzo[d]imidazol-5-yl)methyl)-5-fluoro-N^2-methyl-N^4-(5-methyl-1H-pyrazol-3-yl)pyrimidine-2,4-diamine]	
	< 50 nM	Cc1cc(CNc2ncc(F)c(Nc3cc(C4CC4)[nH]n3)n2)c2cn[nH]c2c1 [II-25, N^4-(5-Cyclopropyl-1H-pyrazol-3-yl)-5-fluoro-N^2-((6-methyl-1H-indazol-4-yl)methyl)-pyrimidine-2,4-diamine]	
	< 50 nM	CCN(Cc1cccc2[nH]ncc12)c1ncc(F)c(Nc2cc(C3CC3)[nH]n2)n1 [II-87, N^2-((1H-indazol-4-yl)methyl)-N^4-(5-cyclopropyl-1H-pyrazol-3-yl)-N^2-ethyl-5-fluoropyrimidine-2,4-diamine]	
< 50 nM		C[C@H](Nc1nccc(Nc2cc(C3CCC3)[nH]n2)n1)c1ccc2[nH]cnc2c1 [I-1, (S)—N^2-(1-(1H-benzo[d]imidazol-5-yl)ethyl)-N^4-(5-cyclobutyl-1H-pyrazol-3-yl)pyrimidine-2,4-diamine]	
< 50 nM		C[C@H](Nc1nccc(Nc2cc(C3CC(F)(F)C3)[nH]n2)n1)c1ccc2[nH]ccc2c1 [I-111, (S)—N^2-(1-(1H-indol-5-yl)ethyl)-N^4-(5-(3,3-difluorocyclobutyl)-1H-pyrazol-3-yl)pyrimidine-2,4-diamine]	
50 to 250 nM		Fc1cc(CNc2nccc(Nc3cc(C4CC4)[nH]n3)n2)cc2nc[nH]c12 [I-96, N^4-(5-cyclopropyl-1H-pyrazol-3-yl)-N^2-((7-fluoro-1H-benzo[d]imidazol-5-yl)methyl)pyrimidine-2,4-diamine]	
	50 to 250 nM	Fc1cc(CNc2ncc(F)c(Nc3cc([C@@H]4CC4(F)F)[nH]n3)n2)c2cn[nH]c2c1 [II-101, (S)-N^4-(5-(2,2-difluorocyclopropyl)-1H-pyrazol-3-yl)-5-fluoro-N^2-((6-fluoro-1H-indazol-4-yl)methyl)pyrimidine-2,4-diamine]	
< 50 nM		Cc1c(CN(C)c2nccc(Nc3cc(C4CC4)[nH]n3)n2)ccc2[nH]cnc12 [I-95, N^4-(5-Cyclopropyl-1H-pyrazol-3-yl)-N^2-methyl-N^2-((4-methyl-1H-benzo[d]imidazol-5-yl)methyl)pyrimidine-2,4-diamine]	
50 to 250 nM		C[C@H](Nc1nccc(Nc2cc([C@@H]3C[C@@H]3F)[nH]n2)n1)c1ccc2[nH]ccc2c1 [I-64, N^2—((S)-1-(1H-indol-5-yl)ethyl)-N^4-(5-((1S,2S)-2-fluorocyclopropyl)-1H-pyrazol-3-yl)pyrimidine-2,4-diamine]	
